The record followed here is PubChem BioAssay AID1745861.

The target in the experiment is Solute carrier family 22 member 3 (Homo sapiens) (UniProt O75751). The experiment can be described thus: OCT3 (SLC22A3) uptake inhibitors, dose response, HEK293 JumpIn overexpressing cells, impedance, MPP+ (AID 1745861). The settings on record: impedance (xCELLigence).
Sequence of Solute carrier family 22 member 3 (Homo sapiens) (O75751 whole entry, looked up): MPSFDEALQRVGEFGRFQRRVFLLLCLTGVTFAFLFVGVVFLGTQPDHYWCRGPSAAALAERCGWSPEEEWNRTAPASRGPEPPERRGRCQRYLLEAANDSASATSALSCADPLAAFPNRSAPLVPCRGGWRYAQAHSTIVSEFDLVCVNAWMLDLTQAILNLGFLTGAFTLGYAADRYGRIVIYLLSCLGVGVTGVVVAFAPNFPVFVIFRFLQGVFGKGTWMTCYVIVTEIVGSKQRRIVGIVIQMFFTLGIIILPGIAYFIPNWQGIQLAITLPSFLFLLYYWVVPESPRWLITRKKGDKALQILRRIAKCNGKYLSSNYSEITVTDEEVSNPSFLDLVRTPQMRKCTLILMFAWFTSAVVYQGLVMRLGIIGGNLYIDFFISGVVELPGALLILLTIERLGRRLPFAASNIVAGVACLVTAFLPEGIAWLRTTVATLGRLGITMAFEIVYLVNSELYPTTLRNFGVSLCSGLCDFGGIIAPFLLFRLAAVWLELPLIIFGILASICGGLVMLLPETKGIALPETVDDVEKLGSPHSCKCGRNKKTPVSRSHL
For the compound `CCN1/C(=C/c2ccc3ccccc3[n+]2CC)C=Cc2ccccc21`, the concentration for half-maximal inhibition (IC50) was 400 nM. Turning to `Cc1cn(-c2cc(NC(=O)c3ccc(C)c(Nc4nccc(-c5cccnc5)n4)c3)cc(C(F)(F)F)c2)cn1`, the half-maximal inhibitory concentration (IC50) is 500 nM. The value for `C=CC(=O)N1CCC[C@@H](n2nc(-c3ccc(Oc4ccccc4)cc3)c3c(N)ncnc32)C1` was 7900 nM; that for `C[C@]12C[C@H](O)[C@H]3[C@@H](CCC4=CC(=O)CC[C@@]43C)[C@@H]1CC[C@@H]2C(=O)CO` was 1600 nM. On to `C[n+]1ccc(-c2ccccc2)cc1`, for which the IC50 was 199000 nM.

A word on the IC50: it is the concentration that gives 50% inhibition.
